This passage reports T/C results from PubChem BioAssay AID330 (DTP/NCI, 2004).

The test concerns P388 leukemia ip, CD2F1 mice, survival T/C. Kind of test: NCI In Vivo Anticancer Drug Screen. Data for tumor model P388 Leukemia (intraperitoneal) in CD2F1 (CDF1) mice. The conditions noted are these: endpoint: median survival time, higher = longer survival. A digest of the protocol:
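Mice carrying the transplanted tumor received test compound or vehicle. Survival was recorded in each group, and the value is the treated-group measurement divided by that of the vehicle-treated control group.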

[1] abbreviates: dose: 50.0 mg/kg/injection, schedule: Q01DX009 (ip), vehicle: saline with Tween-80.
[2] abbreviates: dose: 100.0 mg/kg/injection, schedule: Q01DX009 (ip), vehicle: saline with Tween-80.
[3] abbreviates: dose: 200.0 mg/kg/injection, schedule: Q01DX009 (ip), vehicle: saline with Tween-80.
Where [4] appears, read: dose: 400.0 mg/kg/injection, schedule: Q01DX009 (ip), vehicle: saline with Tween-80.
Setting [5] is: dose: 50.0 mg/kg/injection, schedule: Q01DX005 (ip), vehicle: Klucel (hydroxypropylcellulose) (HPC).
Setting [6] is: dose: 100.0 mg/kg/injection, schedule: Q01DX005 (ip), vehicle: Klucel (hydroxypropylcellulose) (HPC).
Where [7] appears, read: dose: 200.0 mg/kg/injection, schedule: Q01DX005 (ip), vehicle: Klucel (hydroxypropylcellulose) (HPC).
Where [8] appears, read: dose: 25.0 mg/kg/injection, schedule: Q01DX009 (ip), vehicle: saline with Tween-80.
The mark [9] stands for this setting: dose: 60.0 mg/kg/injection, schedule: Q01DX005 (ip), vehicle: saline with Tween-80.
[10] abbreviates: dose: 120.0 mg/kg/injection, schedule: Q01DX005 (ip), vehicle: saline with Tween-80.
Setting [11] is: dose: 50.0 mg/kg/injection, schedule: Q01DX005 (ip), vehicle: saline with Tween-80.
The mark [12] stands for this setting: dose: 100.0 mg/kg/injection, schedule: Q01DX005 (ip), vehicle: saline with Tween-80.
The mark [13] stands for this setting: dose: 200.0 mg/kg/injection, schedule: Q01DX005 (ip), vehicle: saline with Tween-80.

Structures are written as SMILES. “And” between values parts separate entries of the source, which are not always exact repeats. Equal values may be shown once. Toxic doses and inconclusive results are not listed.

Take `Cc1c2oc3c(C)ccc(C(=O)NC(C(=O)NC(C(=O)N(C)C)C(C)C)C(C)O)c3nc-2c(C(=O)NC(C(=O)NC(C(=O)N(C)C)C(C)C)C(C)O)c(N)c1=O` (stereo unspecified): the T/C is 101 % of control (dose: 0.05 mg/kg/injection, schedule: Q01DX009 (ip), vehicle: water); 100 % of control (dose: 0.1 mg/kg/injection, schedule: Q01DX009 (ip), vehicle: water); 100 % of control (dose: 0.2 mg/kg/injection, schedule: Q01DX009 (ip), vehicle: water); 108 % of control (dose: 0.4 mg/kg/injection, schedule: Q01DX009 (ip), vehicle: water); 110 % of control (dose: 0.8 mg/kg/injection, schedule: Q01DX009 (ip), vehicle: water); 99 % of control and 106 % of control (dose: 1.6 mg/kg/injection, schedule: Q01DX009 (ip), vehicle: water). Also, the T/C runs as follows: (dose: 3.2 mg/kg/injection, schedule: Q01DX009 (ip), vehicle: water) 101 % of control; (dose: 6.4 mg/kg/injection, schedule: Q01DX009 (ip), vehicle: water) 101 % of control; (dose: 12.8 mg/kg/injection, schedule: Q01DX009 (ip), vehicle: water) 106 % of control.
In the case of `Oc1ccccc1C=Nc1ccccc1C(F)(F)F`, the T/C runs as follows: under setting [1], 101 % of control; under setting [2], 103 % of control; under setting [3], 95 % of control; under setting [4], 97 % of control.
As to `CN(C)C(=S)SC(=S)Sc1c(Cl)c(Cl)c(Cl)c(Cl)c1Cl`, the T/C under setting [1] is 99 % of control, the T/C under setting [2] is 100 % of control and the T/C under setting [3] is 99 % of control.
On to `O=C1c2ccccc2C(=O)N1/N=C/c1ccc(O)cc1`, for which the T/C was 101 % of control under setting [5], 99 % of control under setting [6] and 100 % of control under setting [7].
Take `NS(=O)(=O)/C=C(\Cl)c1ccccc1`: the T/C reads like this: under setting [8], 102 % of control; under setting [1], 94 % of control; under setting [2], 94 % of control.
Turning to `Cc1ncc(C[n+]2cccc(CCO)c2C)c(N)n1`, the T/C was 97 % of control (dose: 50.0 mg/kg/injection, schedule: Q04DX003 (ip), vehicle: saline); 103 % of control (dose: 100.0 mg/kg/injection, schedule: Q04DX003 (ip), vehicle: saline); 100 % of control (dose: 200.0 mg/kg/injection, schedule: Q04DX003 (ip), vehicle: saline).
As for `CN1C2CCC1c1c([nH]c3ccccc13)C2` (stereo unspecified), the T/C was 94 % of control under setting [9] and 94 % of control under setting [10].
On to `CCc1c(COC(=O)NC)c(COC(=O)NC)cc2c1[nH]c1ccccc12`, for which the T/C by setting is: under setting [11], 88 % of control; under setting [12], 88 % of control; under setting [13], 89 % of control.
Turning to `CC1=Nc2c(C)noc2CC(c2ccccc2O)C1` (stereo unspecified), the T/C was 101 % of control under setting [5] and 106 % of control under setting [6].
Turning to `O=C(c1ccccc1)C(N=Nc1ccccc1)(c1ccccc1)c1ccccc1`, the T/C under setting [9] is 101 % of control; the T/C under setting [10] was 118 % of control; the T/C (dose: 240.0 mg/kg/injection, schedule: Q01DX005 (ip), vehicle: saline with Tween-80) was 100 % of control.
`S=C(c1c(Cl)cccc1Cl)N1CN(Cc2ccc(Cl)cc2)CN(Cc2ccc(Cl)cc2)C1`: the T/C under setting [1] is 99 % of control, the T/C under setting [2] is 96 % of control and the T/C under setting [3] was 108 % of control.
As to `CCOCC(=O)c1ccc2c(O)c3c(c(O)c2c1)C(=O)c1cccc(OC)c1C3=O`, the T/C (dose: 1.56 mg/kg/injection, schedule: Q01DX009 (ip), vehicle: other) is 105 % of control; the T/C (dose: 3.13 mg/kg/injection, schedule: Q01DX009 (ip), vehicle: other) was 104 % of control; the T/C (dose: 6.25 mg/kg/injection, schedule: Q01DX009 (ip), vehicle: other) is 103 % of control; the T/C (dose: 12.5 mg/kg/injection, schedule: Q01DX009 (ip), vehicle: other) was 106 % of control; the T/C (dose: 25.0 mg/kg/injection, schedule: Q01DX009 (ip), vehicle: other) is 108 % of control.
For `Cc1ncn2cnnc2c1C`, the T/C (dose: 100.0 mg/kg/injection, schedule: Q04DX003 (ip), vehicle: saline with Tween-80) is 89 % of control and the T/C (dose: 200.0 mg/kg/injection, schedule: Q04DX003 (ip), vehicle: saline with Tween-80) was 95 % of control.
In the case of `CC(C)N(CCn1cnc2c(N)ncnc21)C(C)C`, the T/C was 100 % of control under setting [5] and 97 % of control under setting [6].
On to `CCCCC(NC(=O)OC(C)(C)C)C(=O)O` (stereo unspecified), for which the T/C by setting is: under setting [5], 98 % of control; under setting [6], 99 % of control; under setting [7], 104 % of control.
`O=C(C/C(=N\C(=S)Nc1cc(C(F)(F)F)ccc1Cl)NO)N1CCCC1`: the T/C reads like this: under setting [8], 101 % of control and 116 % of control; under setting [1], 105 % of control and 112 % of control; under setting [2], 117 % of control; under setting [3], 117 % of control.
For `COc1cc(OC)c2c(c1)C(C1c3cc(C)cc(O)c3C(=O)c3c(OC)cc(OC)cc31)c1cc(C)cc(O)c1C2=O` (stereo unspecified), the T/C reads like this: (dose: 12.5 mg/kg/injection, schedule: Q01DX005 (ip), vehicle: Klucel (hydroxypropylcellulose) (HPC)) 105 % of control; (dose: 25.0 mg/kg/injection, schedule: Q01DX005 (ip), vehicle: Klucel (hydroxypropylcellulose) (HPC)) 100 % of control; under setting [5], 92 % of control; under setting [6], 92 % of control; under setting [7], 96 % of control.
As for `NC(CSCCCSCC(N)C(=O)O)C(=O)O` (stereo unspecified), the T/C (dose: 25.0 mg/kg/injection, schedule: Q01DX001 (ip), vehicle: Klucel (hydroxypropylcellulose) (HPC)) is 97 % of control; the T/C (dose: 50.0 mg/kg/injection, schedule: Q01DX001 (ip), vehicle: Klucel (hydroxypropylcellulose) (HPC)) is 97 % of control; the T/C (dose: 100.0 mg/kg/injection, schedule: Q01DX001 (ip), vehicle: Klucel (hydroxypropylcellulose) (HPC)) was 96 % of control and 97 % of control; the T/C (dose: 200.0 mg/kg/injection, schedule: Q01DX001 (ip), vehicle: Klucel (hydroxypropylcellulose) (HPC)) was 104 % of control.
Take `CC(=O)Nc1ccc2c(ccc3ccccc32)c1`: the T/C was 107 % of control under setting [8], 113 % of control under setting [1], 118 % of control under setting [2] and 115 % of control under setting [3].
On to `CCc1cc(/C=C2/OC(=O)c3ccccc32)cc(CC)c1O`, for which the T/C was 101 % of control (dose: 100.0 mg/kg/injection, schedule: Q04DX002 (ip), vehicle: saline); 100 % of control (dose: 200.0 mg/kg/injection, schedule: Q04DX002 (ip), vehicle: saline); 100 % of control (dose: 400.0 mg/kg/injection, schedule: Q04DX002 (ip), vehicle: saline).
`FC(F)(F)C1(C(F)(F)F)O[Te]2(OC(C(F)(F)F)(C(F)(F)F)c3ccccc32)c2ccccc21`: the T/C (dose: 80.0 mg/kg/injection, schedule: Q04DX002 (ip), vehicle: Klucel (hydroxypropylcellulose) (HPC)) is 96 % of control; the T/C (dose: 160.0 mg/kg/injection, schedule: Q04DX002 (ip), vehicle: Klucel (hydroxypropylcellulose) (HPC)) was 102 % of control; the T/C (dose: 320.0 mg/kg/injection, schedule: Q04DX002 (ip), vehicle: Klucel (hydroxypropylcellulose) (HPC)) was 105 % of control.
As to `CNS(=O)(=O)c1ccc2c(c1)nc(SC)n2C`, the T/C was 100 % of control under setting [2], 100 % of control under setting [3] and 95 % of control under setting [4].
Take `CN(Cc1cnc2nc(N)[nH]c(=O)c2c1)c1ccc(C(=O)NC(CCC(=O)O)C(=O)O)cc1` (stereo unspecified): the T/C is 98 % of control under setting [11], 100 % of control under setting [12] and 111 % of control under setting [13].
Consider `O=C(Nc1cccnc1)c1ccc([N+](=O)[O-])s1`, for which the T/C reads like this: (dose: 25.0 mg/kg/injection, schedule: Q01DX005 (ip), vehicle: saline) 90 % of control; (dose: 50.0 mg/kg/injection, schedule: Q01DX005 (ip), vehicle: saline) 87 % of control; (dose: 100.0 mg/kg/injection, schedule: Q01DX005 (ip), vehicle: saline) 92 % of control; (dose: 200.0 mg/kg/injection, schedule: Q01DX005 (ip), vehicle: saline) 103 % of control; (dose: 400.0 mg/kg/injection, schedule: Q01DX005 (ip), vehicle: saline) 121 % of control.
As to `ClCCN(CCCl)c1ccc(CNCCCNCc2ccc(N(CCCl)CCCl)cc2)cc1`, the T/C (dose: 2.5 mg/kg/injection, schedule: Q01DX009 (ip), vehicle: saline sonified) was 152 % of control and the T/C (dose: 5.0 mg/kg/injection, schedule: Q01DX009 (ip), vehicle: saline sonified) was 95 % of control.
